Patent US8871794B2, “Small-molecule agonists for type-2 orexin receptor” (Board of Regents, The University of Texas System, priority 2008, dated 2014)

Key:
[1] = IP pharmacokinetics in C57BL/6 mice (plasma and brain); type: in vivo, mouse; details: for AUC / Clearance / Kp / Cmax / half-life: IP 20 mg/kg; for Kp: brain/plasma, ip, 20 mg/kg; for half-life: read-out: Terminal half life
Protocol: (§1) Pharmacokinetics: Methods: Chembridge Compound 6037874 (“Yan7874”) was provided as a powdered stock and dissolved in DMSO at 50 mg/ml. The compound was formulated as 5% DMSO/5% Cremaphor EL/90% 5% dextrose, pH 7.2 such that compound could be administered to mice at 10-20 mg/kg in a volume of 0.2 ml by IV bolus.
A second experiment was conducted using 24 C57BL/6 mice (NCI, male, 6 weeks of age). These mice were weighed and injected with 20 mg/kg of compound formulated as described above IP in 0.2 ml. […] The mice were sacrificed as above in groups of three by inhalation overdose of CO2 and blood and brain obtained and processed as above.
(§2) An analytical method was developed to detect Yan7874 using LC/MS/MS.
(§3) A standard curve was developed in plasma in the following manner. 100 μl of plasma is spiked with varying concentrations of Yan7874. The plasma is allowed to sit 10′ at room temperature after vortexing. 200 μl of acetonitrile is added to precipitate plasma proteins and release bound drug. After vortexing, the sample is incubated 10′ at room temperature. 700 μl of PBS is added and the sample is centrifuged at 14,000 rpm in a standard microcentrifuge for 5′. 900 μl of supernatant is added to 1 ml of PBS. The entire sample is passed over a Waters OASIS HLB solid phased extraction column already primed by addition of 2 ml methanol and 2 ml H2O. The column is washed once with 2 ml of 5% methanol/2% NH4OH in H2O and once with 2 ml of 5% methanol/2% acetic acid in H2O and compound is eluted by addition of 2 ml of methanol containing 2% NH4OH. 500 μl of this is added to 500 μl of H2O containing 0.2% formic acid (final formic acid 0.1%). Samples are prepared in the same manner without addition of spiked compound. Brain tissue is prepared by homogenizing in 3× volume of PBS (weight in grams×3=volume in ml to add). 100 μl of blank brain lysate is used for preparation of standard curve samples while 100 μl of sample brain lysate is used for preparation of samples. To calculate brain levels, the concentration in ng/ml calculated from the standard curve is multiplied by the total volume of lysate (a value in ml estimated from the 3× volume of PBS added +1× volume to account for brain tissue itself) and then divided by the weight of the brain in grams. A value of 3× above the signal obtained from blank plasma or brain lysate is designated the limit of detection (LOD). The LOD for plasma is 2640 and for brain 459. The limit of quantitation (LOQ) is the lowest concentration at which back calculation yields a concentration within 20% of theoretical. The LOQ for both plasma and brain is 5 ng/ml. In general back calculation of points on both curves yielded values within 20% of theoretical over 4 orders of magnitude (10,000 to 5 ng/ml) for both sample types.

[2] = IV pharmacokinetics in C57BL/6 mice (plasma and brain); type: in vivo, mouse; details: for Kp: brain/plasma, 10 mg/kg; for half-life: read-out: Terminal half life
Protocol: as §1
The mice were sacrificed in groups of three by inhalation overdose of CO2 and blood and brain obtained. Plasma was subsequently isolated from the […] by centrifugation in a refrigerated microcentrifuge at 10,000 rpm for 10′. The brain was washed extensively with PBS, blotted dry, weighed, and snap frozen in liquid nitrogen.
as §2, §3

[3] = target: T1, OX2R (Homo sapiens, UniProt O43614); assay: Intracellular Calcium Transient Assay in OX2R-expressing CHO cells; type: cell-based; design: expressed in transfected cells
T1 sequence (O43614 1-444): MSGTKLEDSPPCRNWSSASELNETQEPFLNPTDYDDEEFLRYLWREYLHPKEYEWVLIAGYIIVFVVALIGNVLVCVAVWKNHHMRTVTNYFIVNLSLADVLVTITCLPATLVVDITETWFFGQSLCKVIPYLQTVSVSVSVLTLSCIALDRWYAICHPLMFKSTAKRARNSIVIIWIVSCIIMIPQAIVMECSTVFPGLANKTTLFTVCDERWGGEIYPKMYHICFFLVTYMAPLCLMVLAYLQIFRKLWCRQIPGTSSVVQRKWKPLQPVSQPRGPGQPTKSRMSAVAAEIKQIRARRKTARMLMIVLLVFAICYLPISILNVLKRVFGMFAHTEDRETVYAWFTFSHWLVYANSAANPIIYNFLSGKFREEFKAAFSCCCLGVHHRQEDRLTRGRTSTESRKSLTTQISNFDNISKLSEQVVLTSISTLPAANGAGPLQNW
Protocol: DNA Construction: Open reading frames of OX1R, OX2R and GRP (control) receptor were inserted into a bicistronic retrovirus expression vector, pMXs-IRES-puror (pMXs-IP), which carried a FLAG™ epitope cDNA sequence at the beginning of the ORF sequences encoding their human polypeptides.
Transfection and retrovirus production: Transfection was carried out using FuGENE 6 (Roche Diagnostics Corp.) according to the manufacturer's recommendations. Retroviruse fluid was harvested after 48 hours post transfection.
Cell lines: To generate receptor expressing cells, CHO cells harboring ecotropic retroviral receptor were infected with a retroviral supernatant. After 24 hours post infection, the retrovirus supernatant was removed and infected cells were selected with 10 μg/ml of puromycin (Sigma-Aldrich, St. Louis, Mo.). […]
0.5 ml aliquot of the cell suspension was stimulated by addition of 5 μl of compound dissolved in DMSO. Changes of [Ca^2+]i transients in cells were measured at RT by using CAF-110 Intracellular Ion Analyser (JASCO, Tokyo) with the excitation wave lengths of 340 nm and 380 nm and emission wavelength of 500 nm

[4] = IP pharmacokinetics in C57BL/6 mice (plasma and brain); type: in vivo, mouse; details: 30 mg/kg IP, one of the two mice
[5] = male, C57BL/6, mouse, IV 10 mg/kg, brain
[6] = male, C57BL/6, mouse, IV 10 mg/kg, plasma

acute reaction after injection ([1]; 20 mg/kg IP): no acute reactions were noted | AUC ([1]; brain): 133,194 min*ng/g | Clearance ([1]; brain): 2.9 g/min | Clearance ([1]; plasma): 2.7 mL/min | Kp ([1]; male, C57BL/6, mouse, read-out: Blood Brain Penetration Ratio: AUC brain/AUC plasma): 0.9 | Kp ([1]; male, C57BL/6, mouse, read-out: Blood Brain Penetration Ratio: Cmax brain/Cmax plasma): 0.3 | Cmax ([1]; male, C57BL/6, mouse, brain): 337 ng/g | half-life ([1]; male, C57BL/6, mouse, brain): 3.39 h | Cmax ([1]; male, C57BL/6, mouse, plasma): 1080 ng/mL | AUC ([1]; male, C57BL/6, mouse, plasma, read-out: AUC (converted)): 2400 ng·h/mL | half-life ([1]; male, C57BL/6, mouse, plasma): 2.75 h | acute reaction after injection ([2]; 10 mg/kg IV): no acute reactions were noted | time after dosing at which peak brain levels achieved ([2]; 10 mg/kg iv): 30 min | peak levels in brain tissue ([2]; 10 mg/kg iv, 30 minutes after dosing): ~2.5 µg/g | brain penetration ([2]; 10 mg/kg iv, mice): good brain penetration | AUC ([2]; IV 10 mg/kg, brain): 485,627 min*ng/g | Clearance ([2]; IV 10 mg/kg, brain): 0.4 g/min | Kp ([2]; male, C57BL/6, mouse, intravenous, 10 mg/kg iv, read-out: peak brain concentrations relative to peak levels in plasma): ~5 | Kp ([2]; male, C57BL/6, mouse, iv, IV 10 mg/kg, read-out: Blood Brain Penetration Ratio: AUC brain/AUC plasma): 5.2 | Kp ([2]; male, C57BL/6, mouse, iv, IV 10 mg/kg, read-out: Blood Brain Penetration Ratio: Cmax brain/Cmax plasma): 4.8 | concentration at 24 h ([2]; male, C57BL/6, mouse, brain, 10 mg/kg iv, 24 hours, read-out: brain levels persisting at 24 hours post-injection): 5 ng/g | Cmax [2, 5]: 2480 ng/g | half-life [2, 5]: 3.12 h | Cmax [2, 6]: 512 ng/mL | AUC ([2]; male, C57BL/6, mouse, IV 10 mg/kg, plasma, read-out: AUC (area under the concentration-time curve) (converted)): 1530 ng·h/mL | Clearance ([2]; male, C57BL/6, mouse, IV 10 mg/kg, plasma, read-out: Clearance): 2.1 mL/min | half-life [2, 6]: 1.52 h | Ca2+ response [3]: robust Ca2+ response
Structure (SMILES): Cc1ccc(Cn2c(=N)n(CC(O)c3ccc(Cl)c(Cl)c3)c3ccccc32)cc1 (stereo not drawn) [Compound 130699]
acute reaction after injection ([2]; 20 mg/kg IV, first two mice): relatively severe reaction marked by a mild seizure and reduced activity for several hours | acute reaction after injection [4]: abdominal guarding and decreased activity for up to one hour
